# Measurements: patent US9999220B2, “Method for repelling rodents” (Arkion Life Sciences, LLC, priority 2014, dated 2018)
# Key:
# [1] = test system: black-tailed prairie dogs; test: Concentration-response repellency experiment, treated whole corn, black-tailed prairie dogs; type: in vivo, Cynomys ludovicianus; conditions: black-tailed prairie dogs offered corn seeds treated with 0.5-4% anthraquinone (target concentrations), 1-day test
# Excerpt: (§1) These values can also be used to form ranges, such as, for example, from about 15% to about 85% repellency, with preferred ranges for particular rodent families ranging from about 20-50%; 25-40%; 40-55%; and 55-85%. The percent repellency is based on the percentage of the treated item which is not consumed by the animal.
# (§2) We conducted a concentration-response experiment with an anthraquinone-based repellent (Avipel®, a.i. 50% 9,10-anthraquinone; Arkion Life Sciences, New Castle, Del.) to determine anthraquinone repellency for black-tailed prairie dogs (Cynomys ludovicianus, N=44 males and females; Werner et al. 2011). During a 3-day pre-test, we offered one bowl (untreated whole corn) in individual cages at 08:00 h, daily. […] We randomly assigned repellent treatments among groups. During the 1-day test, we offered one bowl (repellent-treated whole corn) at 08:00 h. Consumption of treated corn seeds was measured (±0.1 g) at 08:00 h on the day subsequent to the test.
# We observed 24-37% repellency (FIG. 1) during our concentration-response experiment with black-tailed prairie dogs offered corn seeds treated with 0.5-4% anthraquinone (target concentrations; Werner et al. 2011).
# California voles = test: Concentration-response repellency experiment, treated whole oats, California voles; type: in vivo, Microtus californicus; conditions: California voles offered oats treated with 0.5-2% anthraquinone (target concentrations), 1-day test
# Excerpt: as §1
# as §2, with “California (Microtus californicus, N=30” for “black-tailed prairie dogs (Cynomys ludovicianus, N=44”, “females).” for “females; Werner et al. 2011).”, “oats)” for “corn)”, “oats” for “corn seeds”
# We observed 58-84% repellency (FIG. 2) during our concentration-response experiment with California voles offered oats treated with 0.5-2% anthraquinone (target concentrations).
# [2] = test system: Richardson's ground squirrels; test: Concentration-response repellency experiment, treated whole oats, Richardson's ground squirrels; type: in vivo, Urocitellus richardsonii; conditions: Richardson's ground squirrels offered oats treated with 0.5-2% anthraquinone (target concentrations), 1-day test
# Excerpt: as §1
# as §2, with “a.i.50%” for “a.i. 50%”, “Richardson's ground squirrels (Urocitellus richardsonii, N=28” for “black-tailed prairie dogs (Cynomys ludovicianus, N=44”, “females).” for “females; Werner et al. 2011).”, “oats)” for “corn)”, “oats” for “corn seeds”
# We observed 40-56% repellency (FIG. 3) during our concentration-response experiment with Richardson's ground squirrels offered oats treated with 0.5-2% anthraquinone (target concentrations).
# Sprague-Dawley rats = test: 13-week single-choice feeding study in Sprague-Dawley rats (rat repellency example); type: in vivo; conditions: for Body Weight Day 1: Day 1, mean ± SD; for Body Weight Week 3: Week 3, mean ± SD; for Body Weight Week 7: Week 7, mean ± SD; for Body Weight Week 13: Week 13, mean ± SD; for Total Weight Gain % difference from control / Total Weight Gain: over 13 weeks; for Total Weight Gain: mean ± SD
# Procedure: Anthraquinone is not a classic toxicant but a feeding study on Sprague-Dawley rats was done to determine effects of long term feeding where there was a single choice offered to rats over a 13 week period.
# Anthraquinones was administered to four groups of 10 male and 10 female Sprague-Dawley rats/group at concentrations of 0, 500, 2000, or 7500 ppm (0, 40, 125, or 495 mg/kg/day in males; 0, 44, 150, or 661 mg/kg/day in females) for 4 consecutive weeks. Beginning with Week 5, the 500 ppm diet was reduced to 200 ppm resulting in lowering the doses to 11 and 16 mg/kg/day for males and females, respectively, through the end of the 13-week experimental period.
# Significant reduction in feeding with a single choice indicates a non-lethal repellency.
# deer mice = test: Concentration-response repellency experiment, treated whole oats, deer mice; type: in vivo, Peromyscus maniculatus; conditions: deer mice offered oats treated with 0.25-2% anthraquinone (target concentrations), 1-day test
# Procedure: During a 3-day pre-test, we offered one bowl (untreated whole oats) in individual cages at 08:00 h, daily. […] We randomly assigned repellent treatments among groups. During the 1-day test, we offered one bowl (repellent-treated whole oats) at 08:00 h. Consumption of treated oats was measured (±0.1 g) at 08:00 h on the day subsequent to the test.
# [3] = females, 500 ppm diet (200 ppm from Week 5)
# [4] = males, 500 ppm diet (200 ppm from Week 5)
smiles,measurement,setting,value
"O=C1c2ccccc2C(=O)c2ccccc21 [anthraquinone, 9,10-anthraquinone]",repellency,[1],24-37%
same,repellency,California voles,58-84%
same,repellency,[2],40-56%
same,repellency observed (lack of weight gain from inhibited feeding),"Sprague-Dawley rats; 500 ppm in diet, single choice, 13 weeks",some repellency was observed
same,Body Weight Day 1,Sprague-Dawley rats; [3],185 ± 12.2 G
same,Body Weight Week 3,Sprague-Dawley rats; [3],223 ± 12.4 G
same,Body Weight Week 7,Sprague-Dawley rats; [3],254 ± 14.2 G
same,Body Weight Week 13,Sprague-Dawley rats; [3],274 ± 15.0 G
same,Total Weight Gain % difference from control,Sprague-Dawley rats; [3],−27%
same,Total Weight Gain,Sprague-Dawley rats; [3],89 ± 10.1 Grams
same,Body Weight Day 1,"Sprague-Dawley rats; females, 2000 ppm diet",188 ± 14.6 G
same,Body Weight Week 3,"Sprague-Dawley rats; females, 2000 ppm diet",212 ± 14.2 G
same,Body Weight Week 7,"Sprague-Dawley rats; females, 2000 ppm diet",238 ± 11.7 G
same,Body Weight Week 13,"Sprague-Dawley rats; females, 2000 ppm diet",247 ± 16.3 G
same,Total Weight Gain % difference from control,"Sprague-Dawley rats; females, 2000 ppm diet",−51%
same,Total Weight Gain,"Sprague-Dawley rats; females, 2000 ppm diet",59 ± 9.2 Grams
same,Body Weight Day 1,"Sprague-Dawley rats; females, 7500 ppm diet",189 ± 11.8 G
same,Body Weight Week 3,"Sprague-Dawley rats; females, 7500 ppm diet",204 ± 22.0 G
same,Body Weight Week 7,"Sprague-Dawley rats; females, 7500 ppm diet",226 ± 26.3 G
same,Body Weight Week 13,"Sprague-Dawley rats; females, 7500 ppm diet",217 ± 27.7 G
same,Total Weight Gain % difference from control,"Sprague-Dawley rats; females, 7500 ppm diet",−76%
same,Total Weight Gain,"Sprague-Dawley rats; females, 7500 ppm diet",29 ± 28.2 Grams
same,Body Weight Day 1,Sprague-Dawley rats; [4],252 ± 14.5 G
same,Body Weight Week 3,Sprague-Dawley rats; [4],379 ± 26.4 G
same,Body Weight Week 7,Sprague-Dawley rats; [4],471 ± 39.4 G
same,Body Weight Week 13,Sprague-Dawley rats; [4],528 ± 47.4 G
same,Total Weight Gain % difference from control,Sprague-Dawley rats; [4],−11%
same,Total Weight Gain,Sprague-Dawley rats; [4],275 ± 38.7 Grams
same,Body Weight Day 1,"Sprague-Dawley rats; males, 2000 ppm diet",250 ± 13.5 G
same,Body Weight Week 3,"Sprague-Dawley rats; males, 2000 ppm diet",359 ± 23.7 G
same,Body Weight Week 7,"Sprague-Dawley rats; males, 2000 ppm diet",443 ± 36.9 G
same,Body Weight Week 13,"Sprague-Dawley rats; males, 2000 ppm diet",498 ± 43.0 G
same,Total Weight Gain % difference from control,"Sprague-Dawley rats; males, 2000 ppm diet",−20%
same,Total Weight Gain,"Sprague-Dawley rats; males, 2000 ppm diet",247 ± 37.1 Grams
same,Body Weight Day 1,"Sprague-Dawley rats; males, 7500 ppm diet",250 ± 10.1 G
same,Body Weight Week 3,"Sprague-Dawley rats; males, 7500 ppm diet",342 ± 20.2 G
same,Body Weight Week 7,"Sprague-Dawley rats; males, 7500 ppm diet",425 ± 28.7 G
same,Body Weight Week 13,"Sprague-Dawley rats; males, 7500 ppm diet",470 ± 37.9 G
same,Total Weight Gain % difference from control,"Sprague-Dawley rats; males, 7500 ppm diet",−28%
same,Total Weight Gain,"Sprague-Dawley rats; males, 7500 ppm diet",221 ± 34.0 Grams
same,dietary concentration at which effective repellency began,"Sprague-Dawley rats; single choice diet, 13 weeks",approximately 2000 ppm
same,repellency,deer mice,19-52%
